Data published in patent publication US20260325605A1, “INHIBITORS” (Zealand Pharma A/S, priority 2022, published 2026).
pIC50: −log10 of the molar value. Like-named read-outs stand apart in the source and are kept apart here.

How the values were obtained:
Kv1.3 = molecular target: T1, Kv1.3 (Homo sapiens, UniProt P22001); assay: Patch clamp assay (QPatch), Kv1.3; type: cell-based; settings: CHO cells stably expressing human Kv1.3, read-out: Potency IC50, Kv1.3
T1 construct: expressed in transfected cells
T1 sequence (P22001 whole entry): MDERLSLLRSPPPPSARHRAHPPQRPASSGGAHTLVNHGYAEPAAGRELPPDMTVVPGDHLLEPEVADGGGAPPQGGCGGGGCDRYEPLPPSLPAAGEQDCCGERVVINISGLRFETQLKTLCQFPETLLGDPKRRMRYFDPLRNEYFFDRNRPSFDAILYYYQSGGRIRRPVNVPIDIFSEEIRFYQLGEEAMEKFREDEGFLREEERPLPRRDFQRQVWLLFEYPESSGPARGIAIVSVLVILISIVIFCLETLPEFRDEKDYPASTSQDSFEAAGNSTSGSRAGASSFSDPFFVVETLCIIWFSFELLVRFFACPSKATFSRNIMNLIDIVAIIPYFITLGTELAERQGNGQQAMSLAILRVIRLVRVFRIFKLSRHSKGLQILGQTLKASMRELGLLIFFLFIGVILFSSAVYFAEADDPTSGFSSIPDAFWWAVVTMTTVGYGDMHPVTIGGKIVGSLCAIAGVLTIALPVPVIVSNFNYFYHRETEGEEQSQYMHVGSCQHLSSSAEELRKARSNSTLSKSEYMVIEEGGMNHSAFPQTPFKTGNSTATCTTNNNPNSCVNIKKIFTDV
Description: (§1) Selectivity of Kv1.3 inhibitor peptides for Kv1.3 over other potassium ion channels (Kv1.1, Kv1.2 and Kv1.6) was determined using patch clamp assay.
(§2) Chinese Hamster Ovary (CHO) cell lines stably expressing exogenous human α-subunits of each potassium ion channel were grown and passaged under standard culture conditions.
(§3) The automated, chip-based planar patch clamp device QPatch® was used to quantitate the ionic currents. All recordings were made in the conventional whole-cell configuration after establishment of gigaohm seals. […] During experiments 0.1% (v/v) BSA was included as a vehicle in all external recording solutions. Currents were elicited from a holding potential of −80 mV using a voltage protocol, which shifted the voltage to 30 mV for 500 ms every 15 s.
(§4) Concentration-response relationships were established by cumulatively applying seven escalating concentrations of test sample to an individual cell with a recording period of 2 min per compound application.
(§5) The efficacy was determined as the mean charge for the last three sweeps at the end of each concentration application period from the cursor positions. The percent inhibition for each test dose application period was calculated as the reduction in mean cursor value (charge) relative to the cursor value measured at the end of the vehicle period and used to calculate the IC50 from the concentration response curve.

Kv1.2 = molecular target: T2, Kv1.2 (Homo sapiens, UniProt P16389); assay: Patch clamp assay (QPatch), Kv1.2; type: cell-based; settings: for pIC50: QPatch, CHO cells stably expressing human Kv1.2, read-out: Potency IC50, Kv1.2; for Selectivity Kv1.2/Kv1.3: ratio of IC50 Kv1.2/Kv1.3
T2 construct: expressed in transfected cells
T2 sequence (P16389 whole entry): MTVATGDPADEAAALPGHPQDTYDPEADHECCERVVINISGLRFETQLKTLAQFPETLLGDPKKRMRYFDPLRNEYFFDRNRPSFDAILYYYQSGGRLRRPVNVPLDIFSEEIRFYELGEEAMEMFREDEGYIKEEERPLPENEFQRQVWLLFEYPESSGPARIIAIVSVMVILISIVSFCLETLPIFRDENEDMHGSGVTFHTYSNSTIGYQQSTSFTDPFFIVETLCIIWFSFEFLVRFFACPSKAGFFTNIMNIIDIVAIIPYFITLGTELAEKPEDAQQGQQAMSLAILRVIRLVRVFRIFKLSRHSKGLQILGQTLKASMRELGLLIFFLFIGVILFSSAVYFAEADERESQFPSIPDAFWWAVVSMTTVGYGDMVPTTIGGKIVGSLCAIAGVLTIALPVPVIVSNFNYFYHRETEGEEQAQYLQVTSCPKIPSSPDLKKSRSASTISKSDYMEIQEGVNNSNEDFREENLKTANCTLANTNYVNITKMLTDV
Description: as §1, §2, §3, §4, §5

Kv1.6 = molecular target: T3, Kv1.6 (Homo sapiens, UniProt P17658); assay: Patch clamp assay (QPatch), Kv1.6; type: cell-based; settings: for pIC50: QPatch, CHO cells stably expressing human Kv1.6, read-out: Potency IC50, Kv1.6; for Selectivity Kv1.6/Kv1.3: ratio of IC50 Kv1.6/Kv1.3
T3 construct: expressed in transfected cells
T3 sequence (P17658 whole entry): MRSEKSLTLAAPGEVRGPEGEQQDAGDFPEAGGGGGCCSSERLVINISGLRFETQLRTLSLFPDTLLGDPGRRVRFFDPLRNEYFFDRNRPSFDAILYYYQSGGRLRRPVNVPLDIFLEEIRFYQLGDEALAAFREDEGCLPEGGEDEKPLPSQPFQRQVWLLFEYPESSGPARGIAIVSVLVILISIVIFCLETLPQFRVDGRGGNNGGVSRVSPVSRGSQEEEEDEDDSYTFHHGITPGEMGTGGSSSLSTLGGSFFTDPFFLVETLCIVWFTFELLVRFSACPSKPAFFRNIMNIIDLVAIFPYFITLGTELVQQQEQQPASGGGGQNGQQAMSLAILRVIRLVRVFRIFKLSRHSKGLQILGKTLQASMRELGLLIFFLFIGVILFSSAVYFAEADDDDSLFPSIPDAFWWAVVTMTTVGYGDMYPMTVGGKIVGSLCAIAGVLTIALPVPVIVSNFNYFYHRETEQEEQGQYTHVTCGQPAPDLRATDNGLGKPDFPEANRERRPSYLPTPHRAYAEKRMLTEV
Description: as §1, §2, §3, §4, §5

[1] = system: T-cell activation in rat whole blood; assay: Example 4: IL-17A release in thapsigargin stimulated rat whole blood; type: cell-based, rat (Lewis or Sprague-Dawley); settings: 24 Hr, at least 2 replicates, unit inferred, read-out: IC50 (inhibition of IL-17A release)
How it was run: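 Heparinised whole blood from naïve Lewis or Sprague-Dawley rats preincubated ≥5 min at RT with peptide, then stimulated with thapsigargin (40 μM stock added as one quarter of well volume) for 24 h at 37 °C. Supernatant IL-17A measured by ELISA; IC50 from curves normalised to stimulated and unstimulated controls, ≥2 replicates.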

[2] = system: human peripheral blood mononuclear cells (PBMCs); assay: Example 3b: IL-2 release from anti-CD3 stimulated human PBMCs; type: cell-based; settings: 5 donors, anti-CD3 1 μg/ml, geometric mean, at least 6 replicates
Description: Human peripheral blood mononuclear cells (PBMCs) were used to assess the effects of Kv1.3 inhibitor peptides on T-cell activation as determined by IL-2 release after stimulation with anti-CD3.
Human PBMCs were obtained from Precision for Medicine (Frederick, MD). Cells from 5 donors were used. Plate-bound anti-CD3 was used to stimulate bulk T cells in the PBMC preparations. Briefly, 96-well plates were coated with anti-CD3 antibody for app. 16 hours at 5° C., using 50 μl of a 1 μg/ml anti-CD3 solution diluted in PBS. Thereafter the plates were washed twice.
Peptides were subsequently diluted in medium (RPMI 1640 with Glutamax-I containing, 10% v/v Fetal Bovine Serum, 1% v/v penicillin-streptomycin Solution) and added in a volume of 50 μl. The peptides indicated in Table 4b were used at concentrations ranging from 0.3 pM to 1000 nM (half log dilutions, starting concentrations varying). Cyclosporin A (1 μg/ml) and Vm24 peptide (100 nM) were used as positive controls.
Finally, 50,000 PBMCs in the same medium were added to each well in a volume of 50 μl, giving a final volume of 100 μl per well. The plates were incubated for 20-24 hours in a 370C/5% CO2 incubator. After centrifugation of the plates, 25 μl supernatant was transferred to IL-2 detection plates (MSD Human IL-2 Tissue Culture Kit, cat #K151AHB-2) and IL-2 was measures as described by the manufacturer (Meso Scale Discovery, Rockville, Maryland, USA).
All values derive from at least 6 replicates.

Kv1.1 = molecular target: T4, Kv1.1 (Homo sapiens, UniProt Q09470); assay: Patch clamp assay (QPatch), Kv1.1; type: cell-based; settings: for pIC50: QPatch, CHO cells stably expressing human Kv1.1, read-out: Potency IC50, Kv1.1; for Selectivity Kv1.1/Kv1.3: ratio of IC50 Kv1.1/Kv1.3
T4 construct: expressed in transfected cells
T4 sequence (Q09470 whole entry): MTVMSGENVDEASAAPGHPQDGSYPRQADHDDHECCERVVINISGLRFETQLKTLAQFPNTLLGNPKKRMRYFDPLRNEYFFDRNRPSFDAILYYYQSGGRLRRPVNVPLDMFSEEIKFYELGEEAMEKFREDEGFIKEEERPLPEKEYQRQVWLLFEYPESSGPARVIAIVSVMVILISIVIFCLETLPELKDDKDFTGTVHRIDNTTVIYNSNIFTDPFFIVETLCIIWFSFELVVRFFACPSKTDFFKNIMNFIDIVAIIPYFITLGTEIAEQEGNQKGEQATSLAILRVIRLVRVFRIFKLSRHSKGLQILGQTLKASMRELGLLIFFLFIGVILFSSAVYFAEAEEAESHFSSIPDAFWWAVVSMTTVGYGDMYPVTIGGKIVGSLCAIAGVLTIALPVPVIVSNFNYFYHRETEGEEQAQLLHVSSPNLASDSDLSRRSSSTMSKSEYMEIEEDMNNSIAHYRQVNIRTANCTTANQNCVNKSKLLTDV
Description: as §1, §2, §3, §4, §5

[3] = system: T-cell activation in human whole blood; assay: Example 5: IFN-g, IL-2 and IL-17A release in thapsigargin stimulated human whole blood; type: cell-based; settings: 24 Hr, at least 2 replicate experiments
From the text: Human whole blood was used to assess the potency of Kv1.3 inhibitor peptides on T-cell activation as determined by release of the cytokines IFN-g, IL-2 and IL-17A after stimulation with thapsigargin. Addition of thapsigargin activates a signalling cascade resulting in T cell proliferation and cytokine production, in which the Kv1.3 ion channel plays a key role. Activity of Kv1.3 inhibitors in human primary T cells can thus be measured in this experimental system.
Human whole blood was obtained from healthy blood donors and was collected after informed consent using Sodium Heparin blood sampling tubes (Becton, Dickinson and Company (BD), Cat #367876). Test peptides were diluted to 4× final testing concentrations in assay buffer (Dulbecco's Modified Eagle's medium (DMEM) with high glucose and GlutaMAX (3.97 mM L-alanine-L-glutamine) (Gibco Cat #61965026) supplemented with 25 mM HEPES buffer, 1 mM Sodium Pyruvate, 100 units/ml Penicillin, 100 μg/ml Streptomycin and 0.05% Casein from bovine milk (Sigma-Aldrich Cat #C4765)) and 25 μl was added to wells of a 96 well tissue culture plate. Then 50 μl human whole blood was added and incubated for minimum 5 minutes at room temperature to allow compound binding. Then 25 μl of 40 μM thapsigargin diluted in assay buffer was added to all wells of the assay plates to activate the cells, followed by incubation for 24 Hr at 37° C./5% CO2 in a humidified box. The assay plates were centrifuged for 10 min at 300 g at 4° C. and the supernatants were transferred to new plates. The concentrations of IFN-g, IL-2 and IL-17A released to the supernatants were measured using a tri-plex human cytokine detection kit (MSD Human U-Plex IFN-g, IL-2 and IL-17A kit; Meso Scale Discovery Cat #K15067L-2) and all three cytokines were measured using a MSD MESO QuickPlex SQ 120 instrument as described by the manufacturer (Meso Scale Discovery, Rockville, Maryland, USA).
To determine the potency of inhibition for the compounds, the cytokine concentration data were fitted using a three parameter logistic dose response model based on the formula Y=Bottom+(Top−Bottom)/(1+IC50/X), where Y is measured cytokine concentrations, X is compound concentrations and Top, bottom and IC50 are parameters fitted using the software Graphpad Prism version 5.04. The IC50 value calculated from the concentration response curve represents the compound concentration that gives an inhibition response halfway between the basal (Bottom) response and the maximal (Top) response.
All values are derived from at least 2 replicate experiments. All of the tested Kv1.3 blockers were able to inhibit cytokine production from human T cells present in human whole blood that was stimulated with thapsigargin.

[4] = system: human peripheral blood mononuclear cells (PBMCs); assay: Example 3a: IL-2 release from anti-CD3 stimulated human PBMCs; type: cell-based; settings: for pIC50: human PBMCs, 5 donors, anti-CD3 0.5 μg/mL, geometric mean, at least 4 replicates, read-out: anti-CD3 PBMC/ IL-2 IC50
Description: Human peripheral blood mononuclear cells (PBMCs) were used to assess the effects of Kv1.3 inhibitor peptides on T-cell activation as determined by IL-2 (cytokine) release after stimulation with anti-CD3.
Human PBMCs were obtained from Precision for Medicine (Frederick, MD). Cells from 5 donors were used. Plate-bound anti-CD3 was used to stimulate bulk T cells in the PBMC preparations. Briefly, 96-well plates were coated with anti-CD3 antibody for 2 hrs at 37° C., using 50 μL of a 0.5 μg/mL anti-CD3 solution diluted in 1×PBS. Thereafter the plates were washed twice.
Cyclosporin A (1 ug/ml) and Vm24 peptide (100 nM) were used as positive controls. Finally, 1×10^5 PBMCs were added to each well in a volume of 100 μL, giving a final volume of 200 μL per well. The plates were incubated for 20-24 hours in a 37° C./5% CO2 incubator. After centrifugation of the plates, 25 μl supernatant was transferred to IL-2 detection plates (MSD Human IL-2 Tissue Culture Kit, cat #K151AHB-2) and IL-2 was measures as described by the manufacturer (Meso Scale Discovery, Rockville, Maryland, USA).
All values derive from at least 4 replicates.

[5] = Example 6: Pharmacokinetic characterisation after s.c. administration; type: in vivo, rat (Sprague Dawley or Wistar); settings: rat, 70 nmol/kg
Description: Sprague Dawley or Wistar rats (males with a body weight of approximately 250-350 g) were given a single subcutaneous (s.c.) injection of each peptide to be tested.
Following s.c. administration of the selected peptides (dose 70 nmol/kg, dosing volume either 2 or 5 mL/kg), blood samples were drawn at 15 min, 30 min, 45 min, 60 min, 90 min, 2 h, 3 h, 4 h post-dose. At each sampling time point, samples from the rats were drawn by sublingual bleeding or by tail cut. After last sampling the rats were sacrificed by O2/CO2 anaesthesia. The dosing vehicle was 10 mM phosphate, 0.8% NaCl, 0.05% Polysorbate 20 (pH 6.0).
Plasma samples were analyzed after solid phase extraction (SPE) by liquid chromatography mass spectrometry (LC-MS/MS). Mean plasma concentrations were used for calculation of the pharmacokinetic parameters using the non-compartmental approach in Phoenix WinNonlin 6.4 or a later version. […]. AUCinf is the area under the plasma concentration−time curve extrapolated to infinity (AUCinf=AUClast+Clast/λz, where Clast is the last observed plasma concentration). Cmax is the maximum observed concentration, occurring at Tmax.

[6] = read-out: anti-CD3 PBMC/IL-2 IC50

H-QMDMRC(1)SASVEC(2)KQKC(3)LKAIGSIFGKC(1)MNKKC(2)KC(3)YPR-OH [Peptide 1]
pIC50 (Kv1.3): 9.42
pIC50 (Kv1.2): 6.29
Selectivity Kv1.2/Kv1.3 (Kv1.2): 1364
pIC50 (Kv1.6): < 5.52
Selectivity Kv1.6/Kv1.3 (Kv1.6): >7900
pIC50 [1]: 9.77
pIC50 [2, 6]: 10.05
pIC50 (Kv1.1): < 5.52
Selectivity Kv1.1/Kv1.3 (Kv1.1): >7900

H-P[Nle]D[Nle]RC(1)SASVEC(2)KQKC(3)LKAIGSIFGKC(1)[Nle]NKKC(2)KC(3)YPR-NH2 [Peptide 42]
pIC50 (Kv1.3): 9.74
pIC50 (Kv1.2): 6.03
Selectivity Kv1.2/Kv1.3 (Kv1.2): 5362
pIC50 (Kv1.6): < 5.52
Selectivity Kv1.6/Kv1.3 (Kv1.6): >17100
pIC50 [1]: 9.01
pIC50 ([3]; read-out: Average IC50, IFN-g): 10.34
pIC50 ([3]; read-out: Average IC50, IL-2): 10.52
pIC50 ([3]; read-out: Average IC50, IL-17A): 10.24
pIC50 [2, 6]: 10.52
pIC50 (Kv1.1): < 5.52
Selectivity Kv1.1/Kv1.3 (Kv1.1): >17100

H-[phosphotyrosyl][8-Amino-3,6-dioxaoctanoyl]RSCIDTIPKSRCTAFQCKHSMKYRLSFCRKTCGTC-NH2 [ShK-186, reference compound]
pIC50 (Kv1.3): 10.02
pIC50 (Kv1.2): 7.37
Selectivity Kv1.2/Kv1.3 (Kv1.2): 682
pIC50 (Kv1.6): 9.35
Selectivity Kv1.6/Kv1.3 (Kv1.6): 7.4
pIC50 [4]: 10.15
comparison of IC50 (IL-2 secretion) with ShK186 / Moka1 ([4]; in words): significantly lower than Moka1
pIC50 ([2]; listed as ShK186, read-out: anti-CD3 PBMC/IL-2 IC50): 10.30
pIC50 [2, 6]: 10.40
pIC50 (Kv1.1): 9.51
Selectivity Kv1.1/Kv1.3 (Kv1.1): 4.9

H-N[Nle]D[Nle]RC(1)SASVEC(2)KQSC(3)LKAIGSIFGKC(1)[Nle]NKKC(2)KC(3)YPR-NH2 [Peptide 49]
pIC50 (Kv1.3): 9.43
pIC50 (Kv1.2): < 5.52
Selectivity Kv1.2/Kv1.3 (Kv1.2): >8200
pIC50 (Kv1.6): < 5.52
Selectivity Kv1.6/Kv1.3 (Kv1.6): >8200
pIC50 [1]: 9.20
pIC50 [2, 6]: 10.15
pIC50 (Kv1.1): < 5.52
Selectivity Kv1.1/Kv1.3 (Kv1.1): >8200

H-NMDMRC(1)SASVEC(2)KQKC(3)LKAIGSIFGKC(1)MNKKC(2)KC(3)YPR-OH [Peptide 3]
pIC50 (Kv1.3): 9.57
pIC50 (Kv1.2): 6.39
Selectivity Kv1.2/Kv1.3 (Kv1.2): 1540
pIC50 (Kv1.6): < 5.52
Selectivity Kv1.6/Kv1.3 (Kv1.6): >11300
pIC50 [1]: 9.00
AUCINF ([5]; plasma): 0.0839 µM·h
Cmax ([5]; plasma): 36.9 nM
T1/2 ([5]; plasma terminal elimination half-life): 59.4 min
pIC50 ([3]; read-out: Average IC50, IFN-g): 10.24
pIC50 ([3]; read-out: Average IC50, IL-2): 10.66
pIC50 ([3]; read-out: Average IC50, IL-17A): 10.36
pIC50 [2, 6]: 10.22
pIC50 (Kv1.1): < 5.52
Selectivity Kv1.1/Kv1.3 (Kv1.1): >11300

H-NMDMRC(1)SASVEC(2)KQKC(3)LDAIGSIFGKC(1)MNKKC(2)KC(3)YPR-NH2 [Peptide 21]
pIC50 (Kv1.3): 9.68
pIC50 (Kv1.2): 7.00
Selectivity Kv1.2/Kv1.3 (Kv1.2): 471
pIC50 (Kv1.6): 5.60
Selectivity Kv1.6/Kv1.3 (Kv1.6): 12045
pIC50 [1]: 8.92
pIC50 [4]: 10.00
pIC50 (Kv1.1): < 5.52
Selectivity Kv1.1/Kv1.3 (Kv1.1): >14300

H-NMDMRC(1)SASVEC(2)KQKC(3)LKAIGSIFGKC(1)MNKKC(2)KC(3)YPRRRTA-NH2 [Peptide 24]
pIC50 (Kv1.3): 9.82
pIC50 (Kv1.2): 7.55
Selectivity Kv1.2/Kv1.3 (Kv1.2): 191
pIC50 (Kv1.6): 6.67
Selectivity Kv1.6/Kv1.3 (Kv1.6): 1472
pIC50 [1]: 9.24
pIC50 [2, 6]: 10.22
pIC50 (Kv1.1): 6.20
Selectivity Kv1.1/Kv1.3 (Kv1.1): 4280
